Source: patent US7550506B2, “Amino acid derived prodrugs of propofol, compositions and uses thereof” (XenoPort, Inc., priority 2004, dated 2009)

How the values were obtained:
[1] = Caco-2 homogenate S9 stability; assay type: in vitro ADME; settings: Caco-2 homogenate S9 0.5 mg protein per mL, substrate 5.0 μM, 37° C.
Procedure: Caco-2 Homogenate S9 Stability: Caco-2 cells were grown for 21 days prior to harvesting. Culture medium was removed and cell monolayers were rinsed and scraped off into ice-cold 10 mM sodium phosphate/0.15 M potassium chloride, pH 7.4. Cells were lysed by sonication at 4° C. using a probe sonicator. Lysed cells were then transferred into 1.5 mL centrifuge vials and centrifuged at 9000 g for 20 min at 4° C. The resulting supernatant (Caco-2 cell homogenate S9 fraction) was aliquoted into 0.5 mL vials and stored at −80° C. until used.
For stability studies, prodrug (5 μM) was incubated in Caco-2 homogenate S9 fraction (0.5 mg protein per mL) for 60 min at 37° C. Concentrations of intact prodrug and released propofol were determined at zero time and 60 minutes using LC/MS/MS.

pancreatin = settings: 1% (w/v) pancreatin, substrate 5.0 μM, pH 7.5, 37° C.
Procedure: (§1) The stability of propofol prodrugs were evaluated in one or more in vitro systems using a variety of tissue preparations following methods known in the art. Tissues were obtained from commercial sources (e.g., Pel-Freez Biologicals, Rogers, Ark., or GenTest Corporation, Woburn, Mass.). Experimental conditions used for the in vitro studies are described in Table 1 below. Each preparation was incubated with test compound at 37° C. for one hour. Aliquots (50 μL) were removed at 0, 30, and 60 min and quenched with 0.1% trifluoroacetic acid in acetonitrile. Samples were then centrifuged and analyzed by LC/MS/MS (see Example 134 below for method details). Stability of drug conjugates towards specific enzymes (e.g., peptidases, etc.) were also assessed in vitro by incubation with the purified enzyme.
Pancreatin Stability: Stability studies were conducted by incubating conjugate (5 μM) with 1% (w/v) pancreatin (Sigma, P-1625, from porcine pancreas) in 0.025 M Tris buffer containing 0.5 M NaCl (pH 7.5) at 37° C. for 60 min. The reaction was stopped by addition of 2 volumes of methanol. After centrifugation at 14,000 rpm for 10 min, the supernatant was removed and analyzed by LC/MS/MS.

[2] = substrate 2.0 μM, 37° C.; for % of Propofol Released from Propofol Prodrugs after 60 min, Human Plasma: no cofactors; for % of Propofol Released from Propofol Prodrugs after 60 min, Human Liver S9 (0.5 mg/mL): NADPH
Procedure: as §1

[3] = oral dosing in rats (Raoof et al. 1996); cited from earlier work

| Compound | % of Propofol Released from Propofol Prodrugs after 60 min, Caco-2 S9 [1] | % of Propofol Released from Propofol Prodrugs after 60 min, Pancreatin (pancreatin) | % of Propofol Released from Propofol Prodrugs after 60 min, Human Plasma [2] | % of Propofol Released from Propofol Prodrugs after 60 min, Human Liver S9 (0.5 mg/mL) [2] | Share of the administered drug that undergoes first pass metabolism [3] |
| --- | --- | --- | --- | --- | --- |
| CC(C)c1cccc(C(C)C)c1OC(=O)OC(C)C(NC(=O)CN)C(=O)O (stereo not shown) [(10), H-Gly-Thr(γ-OC(O)OPropofol)-OH] | 30% | 43% | 2% | 2% | – |
| CC(C)c1cccc(C(C)C)c1OC(=O)OC(C)C(NC(=O)C(N)CCCCN)C(=O)O.Cl.Cl (stereo not shown) [(18), H-Lys-Thr(γ-OC(O)OPropofol)-OH Bis-Hydrochloride] | 33% | 1% | 12% | 32% | – |
| CC(C)c1cccc(C(C)C)c1OC(=O)OC(C)C(NC(=O)C(N)CCCN=C(N)N)C(=O)O.Cl.Cl.Cl (stereo not shown) [(23), H-Arp-Thr(γ-OC(O)OPropofol)-OH Tris-Hydrochloride] | 100% | 4% | 25% | 93% | – |
| CC(C)c1cccc(C(C)C)c1OC(=O)OC(C)C(NC(=O)C(N)CN)C(=O)O.Cl.Cl (stereo not shown) [(24), H-Dap-Thr(γ-OC(O)OPropofol)-OH Bis-Hydrochloride] | 21% | 0% | 0% | 1% | – |
| CC(C)c1cccc(C(C)C)c1OC(=O)OC(C)C(NC(=O)C(N)Cc1cnc[nH]1)C(=O)O.Cl.Cl (stereo not shown) [(25), H-His-Thr(γ-OC(O)OPropofol)-OH Bis-Hydrochloride] | 52% | 0% | 0% | 8% | – |
| CC(C)CC(N)C(=O)NC(C(=O)O)C(C)OC(=O)Oc1c(C(C)C)cccc1C(C)C.Cl (stereo not shown) [(26), H-Leu-Thr(γ-OC(O)OPropofol)-OH Hydrochloride] | 93% | 30% | 0% | 37% | – |
| CSCCC(N)C(=O)NC(C(=O)O)C(C)OC(=O)Oc1c(C(C)C)cccc1C(C)C.Cl (stereo not shown) [(27), H-Met-Thr(γ-OC(O)OPropofol)-OH Hydrochloride] | 20% | 0% | 0% | 0% | – |
| CC(C)c1cccc(C(C)C)c1OC(=O)OC(C)C(NC(=O)C(N)CCCN)C(=O)O.Cl.Cl (stereo not shown) [(28), H-Orn-Thr(γ-OC(O)OPropofol)-OH Bis-Hydrochloride] | 54% | 0% | 2% | 11% | – |
| CC(C)c1cccc(C(C)C)c1O [propofol, 2,6-diisopropylphenol] | – | – | – | – | approximately 90% |
| H-Ala-Thr(γ-OC(O)OPropofol)-OH Hydrochloride [(16)] | 33% | – | – | – | – |
